In paper PMC10126150 (2023):

Experiments:
[1] = tested on: atp-7 ADS construct (DNA, aptamer) CACCTGGGGGAGTATTGCGGAGGAAGGTTTCTGTCTCTTATACACATCTGACGCTGCCGACGA/TCGTCGGCAGCGTCAGATGTGTATAAGAGACAGTTTTTTTTTTTTTTTTTTTTTTTTTCCGGGGGCTATC; test: Cy3/quencher fluorescence plate reader, two-site fit; conditions: 120 mM Na+, 5 mM K+, 1 mM Mg2+, 1 mM Ca2+; 20 mM Tris-HCl, 0.01% Tween-20, 25 °C; apparent; lower end of range 12–157, atp-7 stated highest affinity
[2] = tested on: NNGmin_scr with glu-1 (DNA, other, boronic acid-modified U (Z) at 1,4,15,18,19,22,26,29 of strand 1) TGGTGCGCGCAGGCTCCTTAATGCATAATTTTCTGTCTCTTATACACATCTGACGCTGCCGACG/TCGTCGGCAGCGTCAGATGTGTATAAGAGACAGTTTTTTTTTTTTTTTTTTTTTTTTTTAGGGCAGGCTC; test: Cy3/quencher fluorescence plate reader; conditions: 120 mM Na+, 5 mM K+, 1 mM Mg2+, 1 mM Ca2+; 20 mM Tris-HCl, 25 °C; 20% signal change against 45-50% for glu1-4
[3] = tested on: NNGmin_scr with glu-4 (DNA, other, boronic acid-modified U (Z) at 1,4,15,18,19,22,26,29 of strand 1) TGGTGCGCGCAGGCTCCTTAATGCATAATTTTCTGTCTCTTATACACATCTGACGCTGCCGACG/TCGTCGGCAGCGTCAGATGTGTATAAGAGACAGTTTTTTTTTTTTTTTTTTTTTTTTTACCAGGAGCTTC; test: Cy3/quencher fluorescence plate reader; conditions: 120 mM Na+, 5 mM K+, 1 mM Mg2+, 1 mM Ca2+; 20 mM Tris-HCl, 25 °C; 20% signal change against 45-50% for glu1-4
[4] = tested on: NNGmin_scr with glu-2 (DNA, other, boronic acid-modified U (Z) at 1,4,15,18,19,22,26,29 of strand 1) TGGTGCGCGCAGGCTCCTTAATGCATAATTTTCTGTCTCTTATACACATCTGACGCTGCCGACG/TCGTCGGCAGCGTCAGATGTGTATAAGAGACAGTTTTTTTTTTTTTTTTTTTTTTTTTCAGGACAGGCTC; test: Cy3/quencher fluorescence plate reader; conditions: 120 mM Na+, 5 mM K+, 1 mM Mg2+, 1 mM Ca2+; 20 mM Tris-HCl, 25 °C; 20% signal change against 45-50% for glu1-4
[5] = tested on: glu-4 ADS construct (DNA, aptamer, boronic acid-modified U (Z, T in the source) at 5,7,8,12,15,19,24,26 of strand 1 (MS of Bio-NNGmin: seven of eight coupled)) CCCGTGTTAGATAGTAAGTGCAATCTCGGCTTTCTGTCTCTTATACACATCTGACGCTGCCGACGA/TCGTCGGCAGCGTCAGATGTGTATAAGAGACAGTTTTTTTTTTTTTTTTTTTTTTTTTACCAGGAGCTTC; test: Cy3/quencher fluorescence plate reader, single-site fit; conditions: 120 mM Na+, 5 mM K+, 1 mM Mg2+, 1 mM Ca2+; 20 mM Tris-HCl, 0.01% Tween-20, 25 °C; apparent; order of ~0.3 for all four constructs
[6] = tested on: glu-3 ADS construct (DNA, aptamer, boronic acid-modified U (Z, T in the source) at 5,7,8,12,15,19,24,26 of strand 1 (MS of Bio-NNGmin: seven of eight coupled)) CCCGTGTTAGATAGTAAGTGCAATCTCGGCTTTCTGTCTCTTATACACATCTGACGCTGCCGACGA/TCGTCGGCAGCGTCAGATGTGTATAAGAGACAGTTTTTTTTTTTTTTTTTTTTTTTTTTACCAGGAGCTC; test: as above; conditions: 120 mM Na+, 5 mM K+, 1 mM Mg2+, 1 mM Ca2+; 20 mM Tris-HCl, 0.01% Tween-20, 25 °C; apparent; order of ~0.3 for all four constructs
[7] = tested on: glu-1 ADS construct (DNA, aptamer, boronic acid-modified U (Z, T in the source) at 5,7,8,12,15,19,24,26 of strand 1 (MS of Bio-NNGmin: seven of eight coupled)) CCCGTGTTAGATAGTAAGTGCAATCTCGGCTTTCTGTCTCTTATACACATCTGACGCTGCCGACGA/TCGTCGGCAGCGTCAGATGTGTATAAGAGACAGTTTTTTTTTTTTTTTTTTTTTTTTTTAGGGCAGGCTC; test: as above; conditions: 120 mM Na+, 5 mM K+, 1 mM Mg2+, 1 mM Ca2+; 20 mM Tris-HCl, 0.01% Tween-20, 25 °C; apparent; order of ~0.3 for all four constructs
[8] = tested on: NNGmin_scr with glu-3 (DNA, other, boronic acid-modified U (Z) at 1,4,15,18,19,22,26,29 of strand 1) TGGTGCGCGCAGGCTCCTTAATGCATAATTTTCTGTCTCTTATACACATCTGACGCTGCCGACG/TCGTCGGCAGCGTCAGATGTGTATAAGAGACAGTTTTTTTTTTTTTTTTTTTTTTTTTTACCAGGAGCTC; test: Cy3/quencher fluorescence plate reader; conditions: 120 mM Na+, 5 mM K+, 1 mM Mg2+, 1 mM Ca2+; 20 mM Tris-HCl, 25 °C; 20% signal change against 45-50% for glu1-4
[9] = tested on: glu-2 ADS construct (DNA, aptamer, boronic acid-modified U (Z, T in the source) at 5,7,8,12,15,19,24,26 of strand 1 (MS of Bio-NNGmin: seven of eight coupled)) CCCGTGTTAGATAGTAAGTGCAATCTCGGCTTTCTGTCTCTTATACACATCTGACGCTGCCGACGA/TCGTCGGCAGCGTCAGATGTGTATAAGAGACAGTTTTTTTTTTTTTTTTTTTTTTTTTCAGGACAGGCTC; test: Cy3/quencher fluorescence plate reader, single-site fit; conditions: 120 mM Na+, 5 mM K+, 1 mM Mg2+, 1 mM Ca2+; 20 mM Tris-HCl, 0.01% Tween-20, 25 °C; apparent; order of ~0.3 for all four constructs

| KD [1] [µM] | binding [2] | binding [3] | binding [4] | KDeff [5] | KDeff [6] | KDeff [7] | binding [8] | KDeff [9] | Compound |
| --- | --- | --- | --- | --- | --- | --- | --- | --- | --- |
| 12 |  |  |  |  |  |  |  |  | Nc1ncnc2c1ncn2[C@@H]1O[C@H](COP(=O)(O)OP(=O)(O)OP(=O)(O)O)[C@@H](O)[C@H]1O |
|  | weak | weak | weak | ~ 0.3 mM | ~ 0.3 mM | ~ 0.3 mM | weak | ~ 0.3 mM | OC[C@H]1OC(O)[C@H](O)[C@@H](O)[C@@H]1O (stereo partly drawn) |
